{
  "source": "patent US10159678B2",
  "about": "“Methods to decrease susceptibility to asthmatic bronchoconstriction” (Cornell University, priority 2012, dated 2018)",
  "system": "isolated bronchial rings",
  "assay": "Myograph contractile response of bronchial rings isolated from myriocin-treated mice",
  "format": "in vivo",
  "settings": "rings isolated from mice given myriocin (20 μg) intranasally; dose-dependent manner; FIG. 3C, 3D",
  "protocol": "To directly assess bronchial reactivity bronchi were dissected from myriocin treated mice, Sptlc2^+/− or naïve mice, and mounted on hooks in a multiwire myograph system (DMT, Ann Arbor, Mich.) where they were kept at a resting tension of 200-250 mg in Krebs Henseleit (KH) solution at 37° C. (95% O2, 5% CO2). In addition, bronchial rings from naïve mice were bathed in myriocin (10 μM) for 3 h in the myograph before analysis. Mechanical forces were measured isometrically with force transducers interfaced to a data acquisition system (ADInstruments, Colorado Springs, Colo.) and analyzed with LabChart6Pro for Windows. Potassium (80 mM) was used to achieve maximum contraction and methacholine (0.01-10 μM) was added 30 min after washout of the K^+ solution. Contractile responses were measured as percentage of the response to K^+.",
  "data": [
    {"smiles": "CCCCCCC(=O)CCCCCC/C=C/C[C@@H](O)[C@H](O)[C@@](N)(CO)C(=O)O", "note": "[myriocin]", "values": [
      {"measurement": "contractile responses of bronchial rings to methacholine", "result": "increased"}
    ]}
  ]
}
